Reference: US20060211764A1, “Cell activator, process for producing cell activator and apparatus therefor” (priority 2002, published 2006)

Legend:
[1] = system: pulmonary cancer metastasis lymphoma; assay: Administration to a human patient, pulmonary cancer metastasis lymphoma; format: in vivo; conditions: person; 15 g/day for 180 days
lung cancer = assay: MIRS values in a patient suffering from lung cancer before and after taking CPL; format: in vivo, human; conditions: after taking CPL; FIG. 15
From the text: In addition, changes in MIRS values in a patient suffering from lung cancer before and after taking CPL.

[2] = system: periodontal disease bacteria; assay: Control of proliferation of periodontal disease bacteria
[3] = Administration to bovines antepartum; format: in vivo, bovine
From the text: From 3 to 5 days before expected date of delivery, 50 g/day of CPL administration was initiated.

bacterial diarrhea = assay: Administration to milking bovines, bacterial diarrhea; format: in vivo, bovine
From the text: In the milking bovines, a bacterial diarrhea started to spread. Initially, four bovines infected by the bacterial diarrhea one after another. […] The bovines fed as usual even in the condition of diarrhea and no decrease in the amount of milk was observed.

cancer cells = assay: Effects on cancer cells; format: cell-based
From the text: (§1) Morphologically, it causes vacuolation, and the expansion of the cytoplasm of cells, disintegration and aggregation of the nucleus. […] These are considered to inhibit not only the synthesis of ATP but also the actions of mRNA and be involved in the synthesis of RNA and DNA, and the generation of intracellular energy by acting on the metabolism of the intracellular organelle such as rough-surfaced endoplasmic reticulum, smooth-surfaced endoplasmic reticulum, ribosome, Golgi apparatus, etc., and as a result, controlling the metabolism of the cells, influencing the synthesis of proteins/glycoprotein, intracellular lipid metabolism, and movement and transport of ions. […] Morphologically, in the case that cells end up degenerating, the degeneration generally changes first to the nucleus followed by the cytoplasm.

pancreatic cancer = assay: Administration to a human patient, pancreatic cancer; format: in vivo; conditions: 30 g/day; in approximately 1 and a half months
From the text: In approximately 1 and a half months, the patient recovered.

[4] = system: infantile asthma, atopic dermatitis; assay: Administration to a child, infantile asthma, atopic dermatitis; format: in vivo, human; conditions: CPL solution plus spraying agent, 15 g/day for 40 days, 10 g/day for next 140 days
Procedure: In addition to the said solution, a spraying agent was used. The said spraying agent was prepared by filling a spraying container with a solution, which was prepared by further diluting by a flux the ointment manufactured by dissolving cyclic polylactic acids in a flux such as propylene glycol, etc. before they solidify, which was described in the <Example of manufacturing> section.

cervical malign lymphoma = assay: Administration to a human patient, cervical malign lymphoma; format: in vivo; conditions: person; 20 g/day for 360 days
bladder cancer = assay: Administration to human patients, bladder cancer; format: in vivo
hepatitis C = assay: Administration to a human patient, hepatitis C; format: in vivo; conditions: person; 20 g/day for 16 months
gastric cancer = assay: Administration to human patients, gastric cancer; format: in vivo
From the text: Patient, gastric cancer had metastasized in the liver; countless cancer cells metastasized and dispersed in the liver.
Gastric cancer was detected as a result of a detailed examination, extirpated soon after the discovery, cancer as large as a head of a fetus was removed. Scattered additionally in the peritoneal cavity: Life expectancy was 3-6 months.
person, metastasized in the pancreas and peritoneum.

breast cancer = assay: Administration to human patients, breast cancer; format: in vivo; conditions: 20 g/day for 210 days
From the text: After extirpation, metastasized to the eye.
person, metastasized to the bone marrow.

cancer = assay: Several hundreds of patients suffering from cancer taking CPL; format: in vivo, human; conditions: 10-20 g/day
constipation = assay: Bowel movement and constipation during ingestion; format: in vivo, human; conditions: CPL ingestion; laxative discontinued
pyruvic acid kinase = assay: Inhibition of pyruvic acid kinase activity; format: biochemical; conditions: enzyme of the anaerobic glycolytic pathway
From the text: as §1

tongue cancer = assay: Administration to a human patient, tongue cancer; format: in vivo; conditions: person; 20 g/day for 120 days
[5] = system: lactate dehydrogenases (LDH); assay: Inhibition of lactate dehydrogenase activity of cancer cells; format: biochemical
From the text: as §1

ketosis = assay: Administration to bovines, ketosis (obese syndrome); format: in vivo, bovine; conditions: 100 g/day mesothiol 10 days before delivery, then 100g/day of CPL in combination for 7 days after delivery
Procedure: For 10 days before the expected date of delivery, 100 g/day of mesothiol was administered in bovines with ketosis.

baldness = assay: Spray and oral powder, baldness; format: in vivo, human; conditions: spray twice a day (10 g in terms of CPL powder) and 10 g/day orally for approximately 50 days
From the text: The said spraying agent was sprayed on a bald part of a head.

[6] = Examinations after ingestion by healthy subjects and long-term patients; format: in vivo, human
uterine cervical cancer = format: in vivo, human; conditions: ingesting CPL
From the text: In the case of elderly people whose metabolic functions are weaker, ingesting a large amount of a drug often causes adverse reactions and invites risks. […] This patient was taking a strong painkiller when fighting against cancer, which could be replaced by a common painkiller after taking CPL.

diarrhea = assay: Administration to calves, diarrhea; format: in vivo, bovine
From the text: Diarrhea frequently occurred in calves when changing to the milk substitute, which is thought to inhibit normal development of the calves. Then farmers may suffer a serious loss.

[7] = system: diabetes/rheumatism/hypertension; assay: Administration to a human patient, diabetes/rheumatism/hypertension; format: in vivo; conditions: person; 15 g/day for 30 days, then up to 20 g/day
mastitis = assay: Administration to bovines, mastitis; format: in vivo, bovine
Procedure: If an antibiotic drug is administered as usual, it takes at least one week after CR to make shipment of milk from the bovines, resulting in loss of 70,000-100,000 yen per bovine. […] Thus, the invention can contribute to dairy managerial economies.

Question: With Cyclic Poly-lactate [CPL] as the substance, how does the “course of pulmonary cancer metastasis lymphoma” value [1] read?
Answer: satisfactory progress

Question: What about the “MIRS values in patient suffering from lung cancer” value (lung cancer) of the same substance?
Answer: increased significantly

Question: And the “controlling the proliferation of periodontal disease bacteria” value [2]?
Answer: effective

Question: What about the mastitis prevention ([3]; 50 g/day from 3 to 5 days before expected date of delivery) of the same substance?
Answer: confirmed to play a role in mastitis prevention

Question: And the delivery of calves ([3]; 50 g/day initiated 5 days before expected date of delivery)?
Answer: smoothly

Question: What about the “response of bacterial diarrhea” value (bacterial diarrhea; 50 g/day, 100 g/day of Neothor in combination in severe cases, in most bovines) of the same substance?
Answer: complete response

Question: What about the amount of milk (bacterial diarrhea; bovines with bacterial diarrhea given 50 g/day) of the same substance?
Answer: no decrease

Question: What about the “proliferation of cancer cells” value (cancer cells) of the same substance?
Answer: controls the proliferation

Question: What about the “outcome of patient with pancreatic cancer considered incurable” value (pancreatic cancer) of the same substance?
Answer: recovered

Question: What about the asthmatic seizures [4] of the same substance?
Answer: stopped

Question: What about the “eczema on the back and face” value [4] of the same substance?
Answer: disappeared

Question: What about the itchiness [4] of the same substance?
Answer: cured

Question: And the “outcome of cervical malign lymphoma” value (cervical malign lymphoma)?
Answer: cured

Question: What about the “examination findings and recurrence of bladder cancer” value (bladder cancer; male, resection performed 5 times, 20-30 g/day for 50 days) of the same substance?
Answer: no abnormal findings from examinations, nor a recurrence

Question: And the “course of bladder cancer” value (bladder cancer; person, 40-50 g/day for 270 days)?
Answer: improved from the terminal stage

Question: What about the “condition of hepatitis C patient” value (hepatitis C) of the same substance?
Answer: satisfactory condition

Question: What about the “shadow on the liver” value (hepatitis C) of the same substance?
Answer: disappeared

Question: What about the “cancer blocks metastasized in the liver” value (gastric cancer; male, gastric cancer metastasized in the liver, CPL for 2 weeks) of the same substance?
Answer: necrotized

Question: What about the “course of terminal inoperable gastric cancer” value (gastric cancer; person, metastasized in pancreas and peritoneum, 30 g/day for 150 days) of the same substance?
Answer: progressing satisfactorily

Question: What about the “recurrence after extirpation of gastric cancer” value (gastric cancer; scattered in peritoneal cavity, life expectancy 3-6 months, 10 g/day for 5 months) of the same substance?
Answer: no sign of a recurrence

Question: What about the “course of breast cancer metastasized to the eye” value (breast cancer; after extirpation) of the same substance?
Answer: satisfactory progress

Question: What about the tumor marker (breast cancer; person, breast cancer metastasized to bone marrow, decreased from 200) of the same substance?
Answer: 5

Question: What about the “findings of ameliorated adverse reactions, macrobiotic effects and suggestion of a cure” value (cancer) of the same substance?
Answer: observed in the majority

Question: And the “defecation of patients suffering from constipation” value (constipation)?
Answer: improved defecation

Question: What about the “activity of pyruvic acid kinase” value (pyruvic acid kinase) of the same substance?
Answer: inhibits

Question: And the “outcome of tongue cancer” value (tongue cancer)?
Answer: completely disappeared

Question: And the “activity of lactate dehydrogenases (LDH)” value [5]?
Answer: inhibits

Question: What about the “level of γGTP” value (ketosis; 100 in onset) of the same substance?
Answer: 35

Question: And the “level of GOT” value (ketosis; 549 in onset)?
Answer: 83

Question: What about the “hair growth on bald part of head” value (baldness) of the same substance?
Answer: hair growth is achieved

Question: And the “effect on results of examinations (physical findings, hematological/biochemical tests, urine and faeces)” value ([6]; healthy subjects, 6 g/day)?
Answer: not to affect

Question: And the “effect on biogenic basic functions (appetite, sleep, changes in weight, libido)” value ([6]; human, in vivo)?
Answer: no effect

Question: What about the “abnormal findings from examinations” value ([6]; patients who have taken 6 g/day for 3-5 years) of the same substance?
Answer: no abnormal findings at all

Question: What about the “pain of patients suffering from advanced cancer” value (uterine cervical cancer) of the same substance?
Answer: diminishes the pain rapidly

Question: What about the “outcome of diarrhea in calves changing to milk substitute” value (diarrhea; 20-30 g/day) of the same substance?
Answer: recovered completely

Question: And the “diarrhea in calves that took CPL (prevention)” value (diarrhea; 20 g/day for the first 4-5 days)?
Answer: spontaneously cured

Question: And the “time to complete recovery after CPL administration” value (diarrhea; calves, 20-30 g/day)?
Answer: approximately 3 days

Question: What about the need for dialysis [7] of the same substance?
Answer: dialysis was not necessary

Question: What about the response of mastitis (mastitis; oral, 50 g of CPL (powder) dissolved in water) of the same substance?
Answer: Complete response

Question: What about the “milking from the other normal udders during treatment” value (mastitis; treatment using CPL alone) of the same substance?
Answer: available
